The subject of data set [1] is rabbit model of pleurodesis. Nature of the data set: Direct daily dosing at low levels, rabbit model of pleurodesis. In kind it is in vivo. The settings on record: for average pleurodesis score: score out of 8. The procedure: These experiments were carried out in order to determine if low doses of sclerosing agents could result in successful pleurodesis when administered in a repeated fashion. Using daily doses of silver nitrate or doxycycline in decreasing doses starting at the lower limit of what has previously been reported to be effective, further decreases in dosing were administered utilizing single day, 5 day or 14 day regimens. Theoretically utilizing lower doses on a repeated basis may reduce the frequency and/or severity of side effects.
All experiments were carried out in a rabbit model of pleurodesis which has been extensively utilized in the field of pleurodesis in many centers around the world. As explained in further detail below, standard pleurodesis is score graded one to 8 and is used for assessment of the efficacy of pleurodesis, the number one representing a normal pleural space while 8 represents complete pleural symphysis. A score of 5 or higher is usually considered consistent with a successful pleurodesis.
A total of 18 animals were treated with doxycycline at doses of 1 mg/kg, 5 mg/kg, or 10 mg/kg. Animals (n=2) in the 10 mg/kg group received only the single day injection, animals (n=2/group) in the 5 mg/kg range received either 1 day, 5 days or 14 days injection, and animals in the lowest dose range of 1 mg/kg (n=2/group) received repeated injections over 5 days or 14 days. The results were compared with the placebo groups (n=2/group) which were given saline injections over either 1, 5 or 14 days. All doses were administered after a daily drainage. At the end of the treatment period, the animals were euthanized and pleurodesis was scored according to the standard scoring system shown in FIG. 5.
A total of 20 animals were treated with silver nitrate at dosing concentrations of 0.05%, 0.085%, 0.425% and 0.85%. Note that reported effective single dose injections of silver nitrate in this model range from 0.3% to 0.5%. A concentration of 0.25% was reported to be ineffective in one publication, but overall data is limited. The groups were assigned a treatment period of either a 1 day, 5 days or 14 days of repeated injections. A minimum of 2 animals were used for each of the 10 groups, and a further 2 animals were tested at the lowest dose range (0.05%). The results were compared with the placebo groups which were given saline injections over either 1, 5 or 14 days (n=2/group). All doses were administered after a daily drainage. At the end of the treatment period, the animals were euthanized and pleurodesis was scored according to the standard scoring table (shown in FIG. 5). Degree of pleural inflammation and fibrosis was also evaluated.

Data set [2] relates to patients. The settings on record: cited from earlier work; for pain after intrapleural administration: literature reports.
Data set [3] concerns animal model. As to conditions: cited from earlier work.
Data set [4] concerns rabbit model of pleurodesis. The settings on record: concentration of 0.25%; cited from earlier work.

Take `C[C@H]1c2cccc(O)c2C(=O)C2=C(O)[C@]3(O)C(=O)C(C(N)=O)=C(O)[C@@H](N(C)C)[C@@H]3[C@@H](O)[C@@H]21` [doxycycline]: the pleurodesis score in data set [1] (5 mg/kg over 14 days, score 1-8) worked out at 5. The molecule further yielded a mean pleurodesis score in data set [1] (10 mg/kg single dose, score 1-8) of 4.5. For the same molecule, in data set [2], the “pain after intrapleural administration” value is on record as “significant”.
Turning to `CN(C)c1ccc(O)c2c1C[C@H]1C[C@H]3[C@H](N(C)C)C(O)=C(C(N)=O)C(=O)[C@@]3(O)C(O)=C1C2=O` [minocycline], the mortality entry in data set [3] (higher doses, intrapleural (Light et al., 1994)) is recorded as “excess mortality”.
Turning to `O=[N+]([O-])[O-].[Ag+]` [silver nitrate], the average pleurodesis score in data set [1] (0.05% 14 days of repeated injections) was determined as 6.5; in data set [1] (0.085% repeated daily over 5 days), 7.5; in data set [1] (0.425% single day injection), 8; in data set [1] (0.85% single day injection) it was 8. The pleurodesis scores result in data set [1] (0.050% administered for 14 days) is “greater than or equal to 5”; in data set [1] (0.085% administered for 5 days), “successful pleurodesis scores”. Further, the pleurodesis outcome in data set [1] (0.085% single dose) is listed as “ineffective in achieving pleurodesis”. The “pleurodesis outcome (one publication)” value in data set [4] is “ineffective”. Further, the “systemic response (white blood cell count elevation, neutrophilia, serum interleukin-8 and VEGF levels)” value in data set [3] (concentration of 0.1% vs 0.5% dose (Marchi et al., 2005)) is on record as “less systemic response”. In addition, in data set [2] (0.5% concentration (Paschoalini et al., 2005)), the “tolerability in human trial” value is “well tolerated”. The clinical side effects result in data set [2] (concentrations of up 10% (Wied et al.)) was “severe pain and side effects”. In data set [2], the “pain after intrapleural administration” value is “significant”.
In the case of `CN(C)[C@@H]1C(O)=C(C(N)=O)C(=O)[C@@]2(O)C(O)=C3C(=O)c4c(O)cccc4[C@@](C)(O)[C@H]3C[C@@H]12` [tetracycline], in data set [2], the “pain after intrapleural administration” value was “Intense pain”.
